Experiments:
recombinant human TRα = biological target: T1, recombinant human TRα (Homo sapiens, UniProt P10827); test: biochemical; details: TR[…] (IC50, nM), displacement of 125I-T3 (0.16 nM)
T1 sequence (P10827 190-410 isoform P10827-2): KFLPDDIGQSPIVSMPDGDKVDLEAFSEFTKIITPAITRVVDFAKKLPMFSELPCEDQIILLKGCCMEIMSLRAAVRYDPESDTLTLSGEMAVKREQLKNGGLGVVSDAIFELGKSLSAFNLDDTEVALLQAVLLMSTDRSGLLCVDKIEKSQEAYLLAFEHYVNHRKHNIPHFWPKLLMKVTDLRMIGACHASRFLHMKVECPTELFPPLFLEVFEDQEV
Excerpt: (§1) Thyroid Hormone Receptor Binding Test
(§2) (1) Preparation of Fused Protein Having Ligand Binding Region of Thyroid Hormone Receptor
(§3) Human TRα and human TRβ ligand binding domains were expressed in Escherichia coli as a fused protein (recombinant human TRα or recombinant human TRβ) having TRα and TRβ ligand binding domains at a C-terminus of His-Patch Thioredoxin using the His-Patch Thioredoxin fusing protein expressing system (Invitrogen).
(§4) A nucleotide sequence of a region corresponding to the fused protein was confirmed by DNA sequence analysis.
(§5) Escherichia coli by which the fused protein had been subjected to expression inducement were collected by a centrifugation method, and ground using ultrasound to prepare a ground cell liquid containing the fused protein. The ground cell liquid was centrifuged at 15000 rpm for about 30 minutes, and a solution containing the fused protein from the supernatant using a nickel chelating column was obtained. An NAP-10 column was replaced with a binding solution (20 mM, Tris-HCl, 0.15 M NaCl, 8% Glycerol, 0.1% BSA, 1 mM EDTA, 10 mM 2-melcaptethanol). The resulting binding solution containing the fused protein was frozen and stored at −70° C. or lower.
(§6) (2) Binding Affinity for Thyroid Hormone Receptor
(§7) This binding solution (60 μL) was added to all wells of a 96-well plate (MILLIPORE MultiScreen-HV, Cat. No. MANVN4550, Lot. No. F4SN86613). […] 80 μL of SephadexG25 was added to each well of MultiScreen-HV (MILLIPORE, Cat. No. MANVN4550, Lot. No. F4SN86613), the binding solution was added to sufficiently swell, and this was centrifuged at 600×g for 1 minute to prepare a column of SephadexG25. […] Again, 25 μL untreated binding solution was overlaid on the SephadexG25 column, and this was immediately centrifuged at 600×g for 1 minute. […] As an amount of recombinant human TRα or recombinant human TRβ used in the present test, an amount by which proper radioactivity is obtained in a range where an addition amount of the receptor and an amount of the complex in the above test system, was used.
(§8) This was divided by the total complex amount to calculate a binding rate as the following equation:
(§9) Binding rate=remaining complex amount/total complex amount

recombinant human TRβ = biological target: T2, recombinant human TRβ (Homo sapiens, UniProt P10828); test: biochemical; details: TR[…] (IC50, nM), displacement of 125I-T3 (0.16 nM)
T2 sequence (P10828 244-461): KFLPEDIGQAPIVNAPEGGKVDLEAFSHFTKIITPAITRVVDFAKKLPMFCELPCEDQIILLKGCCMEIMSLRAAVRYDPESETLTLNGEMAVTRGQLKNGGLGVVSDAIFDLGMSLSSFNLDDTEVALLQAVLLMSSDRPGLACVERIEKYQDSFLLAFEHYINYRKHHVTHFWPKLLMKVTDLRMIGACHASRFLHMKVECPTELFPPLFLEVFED
Excerpt: as §1, §2, §3, §4, §5, §6, §7, §8, §9

Structure (SMILES)	IC50 (recombinant human TRα) [nM]	IC50 (recombinant human TRβ) [nM]
Cc1ccc(NC(=O)CC(=O)O)c2cc(C(F)(F)F)n(Cc3ccc(O)c(C(C)C)c3)c12 [Example 95]	98	5
CCOc1cc(Cn2c(C)cc3c(NC(=O)C(=O)O)ccc(C)c32)ccc1O [Example 126]	1900	320
CC(C)c1cc(Cn2ccc3c(NC(=O)C(=O)O)cccc32)ccc1O [Example 63, N-[1-(4-hydroxy-3-isopropylbenzyl)-1H-indol-4-yl]oxamic acid]	1200	170
Cc1cc(Cn2ccc3c(NC(=O)C(=O)O)ccc(C)c32)cc(C)c1O [Example 103]	3200	860
CCCc1cc(Cn2c(C)cc3c(NC(=O)C(=O)O)ccc(C)c32)ccc1O [Example 116]	52	9.2

Source: patent publication US20090176841A1, “NOVEL 6-5 SYSTEM BICYCLIC HE[…] ITS PHAR[…]” (Sanwa Kagaku Kenkyusho Co., Ltd., priority 2006, published 2009)
